In test [1] the target is T1, CDK2/CycE (Homo sapiens, UniProt P24941).
T1 construct: GST; purchased ProQinase GmbH, Freiburg; host or cells: baculovirus-infected insect cells (Sf9)
Briefly: CDK2/CycE kinase assay (HTRF). It is filed as biochemical. Conditions: 10 μM ATP. How it is done: The CDK2/CycE inhibitory activity of the substances of this invention was measured in the CDK2/CycE-HTRF assay (HTRF=Homogeneous Time Resolved Fluorescence) described in the following paragraphs.
Recombinant CDK2-GST and CycE-GST fusion proteins purified from baculovirus-infected insect cells (Sf9) were purchased from ProQinase GmbH, Freiburg. The substrate used for the kinase reaction was the biotinylated peptide biotin-Ttds-YISPLKSPYKISEG (C terminus in amide form) which can be purchased for example from JERINI Peptide Technologies (Berlin).
CDK2/CycE was incubated in the presence of various concentrations of test substances in 5 μL of assay buffer [50 mM Tris/HCl pH 8.0, 10 mM MgCl2, 1.0 mM dithiothreitol, 0.1 mM sodium orthovanadate, 10 μM adenosine triphosphate (ATP), 0.75 μM substrate, 0.01% (v/v) Nonidet-P40 (Sigma), 1% (v/v) dimethyl sulphoxide] at 22° C. for 60 min. The concentration of CDK2/CycE was adapted to the particular activity of the enzyme and adjusted so that the assay operated in the linear range. Typical concentrations were in the region of 1 ng/ml. The reaction was stopped by adding 5 μl of a solution of HTRF detection reagents (0.2 μM streptavidin-XLent and 3.4 nM phospho-(Ser) CDKs substrate antibody [product #2324B, Cell Signaling Technology, Danvers, Mass., USA] and 4 nM Prot-A-EuK [protein A labelled with Europium cryptate from C is biointernational, France, product No. 61 PRAKLB]) in aqueous EDTA solution (100 mM EDTA, 800 mM KF, 0.2% (w/v) bovine serum albumin (BSA) in 100 mM HEPES/NaOH pH 7.0).
(§1) The resulting mixture was incubated at 22° C. for 1 h in order to allow formation of a complex of the biotinylated phosphorylated substrate and the detection reagents. The amount of phosphorylated substrate was then estimated by measuring the resonance energy transfer from the Prot-A-EuK to the streptavidin-XLent. For this purpose, the fluorescence emissions at 620 nm and 665 nm after excitation at 350 nm were measured in an HTRF measuring instrument, e.g. a Rubystar (BMG Labtechnologies, Offenburg, Germany) or a Viewlux (Perkin-Elmer). The ratio of the emissions at 665 nm and at 622 nm was taken as a measure of the amount of phosphorylated substrate. The data were normalized (enzymic reaction without inhibitor=0% inhibition, all other assay components but no enzyme=100% inhibition) and IC50 values were calculated with a 4-parameter fit using an inhouse software.
For orientation: In TR-FRET formats the signal depends on donor and acceptor labels being close together.

The target in test [2] is T2, KDR kinase (Homo sapiens, UniProt P35968).
T2 construct: GST; purchased ProQinase GmbH, Freiburg; host or cells: baculovirus-infected insect cells (Sf9)
T2 sequence (P35968 807-1356 limits assumed): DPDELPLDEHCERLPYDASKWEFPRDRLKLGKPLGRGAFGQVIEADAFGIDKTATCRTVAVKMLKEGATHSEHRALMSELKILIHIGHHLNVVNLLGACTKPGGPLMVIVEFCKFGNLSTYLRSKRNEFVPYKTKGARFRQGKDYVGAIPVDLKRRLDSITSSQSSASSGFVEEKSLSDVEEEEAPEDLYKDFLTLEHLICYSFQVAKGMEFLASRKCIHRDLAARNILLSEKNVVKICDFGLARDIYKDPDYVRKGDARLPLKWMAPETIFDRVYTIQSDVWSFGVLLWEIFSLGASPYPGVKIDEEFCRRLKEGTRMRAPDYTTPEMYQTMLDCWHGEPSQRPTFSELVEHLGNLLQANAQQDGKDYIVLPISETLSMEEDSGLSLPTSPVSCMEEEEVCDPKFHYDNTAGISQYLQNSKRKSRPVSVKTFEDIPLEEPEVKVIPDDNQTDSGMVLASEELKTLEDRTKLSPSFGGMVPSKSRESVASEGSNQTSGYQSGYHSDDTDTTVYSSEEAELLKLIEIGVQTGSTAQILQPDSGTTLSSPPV
Briefly: KDR kinase assay (HTRF). Conditions: KDR kinase-GST, 10 μM ATP. It is filed as biochemical. How it is done:
The KDR-inhibitory activity of the substances of this invention was measured in the KDR-HTRF assay (HTRF=Homogeneous Time Resolved Fluorescence) described in the following paragraphs.
Recombinant KDR kinase-GST fusion protein purified from baculovirus-infected insect cells (Sf9) was purchased from ProQinase GmbH, Freiburg. The substrate used for the kinase reaction was the biotinylated peptide biotin-Ahx-DFGLARDMYDKEYYSVG (C terminus in acid form) which can be purchased for example from Biosynthan GmbH (Berlin-Buch, Germany).
KDR kinase was incubated in the presence of various concentrations of test substances in 5 μL of assay buffer [50 mM Hepes/NaOH pH 7.0, 25 mM MgCl2, 5 mM MnCl2, 1.0 mM dithiothreitol, 0.1 mM sodium orthovanadate, 10 μM adenosine triphosphate (ATP), 0.5 μM substrate, 0.001% (v/v) Nonidet-P40 (Sigma), 1% (v/v) dimethyl sulphoxide] at 22° C. for 45 min. The concentration of KDR was adapted to the particular activity of the enzyme and adjusted so that the assay operated in the linear range. The reaction was stopped by adding 5 μl of a solution of HTRF detection reagents (0.1 μM streptavidin-XLent and 2 nM PT66-Eu chelate, a Europium chelate-labelled anti-phospho-tyrosine antibody from Perkin Elmer) in aqueous EDTA solution (125 mM EDTA, 0.2% (w/v) bovine serum albumin (BSA) in 50 mM HEPES/NaOH pH 7.0).
as §1, with “of” for “of a complex of”, “streptavidin-XLent and PT66-Eu chelate.” for “detection reagents.”, “PT66-Eu chelate” for “Prot-A-EuK”

Test [3] has as its system human MCF7 breast tumour cells. Briefly: MCF7 proliferation assay. It is filed as cell-based. Particulars: 96 h, 4 days incubation, crystal violet staining. How it is done: Cultivated human MCF7 breast tumour cells (ATCC HTB-22) were plated out in a density of 5000 cells/measurement point in 200 μl of growth medium (RPMI1640, 10% foetal calf serum, 2 mU/mL insulin, 0.1 nM oestradiol) in a 96-well multititre plate. After 24 hours, the cells from a plate (zero plate) were stained with crystal violet (see below), while the medium in the other plates was replaced by fresh culture medium (200 μl) to which the test substances had been added in various concentrations (0 μM, and in the range 0.01-30 μM; the final concentration of the solvent dimethyl sulphoxide was 0.5%). The cells were incubated in the presence of the test substances for 4 days. The cell proliferation was determined by staining the cells with crystal violet: the cells were fixed by adding 20 μl/measurement point of an 11% strength glutaraldehyde solution at room temperature for 15 min. After the fixed cells had been washed three times with water, the plates were dried at room temperature. The cells were stained by adding 100 μl/measurement point of a 0.1% strength crystal violet solution (pH adjusted to pH 3 by adding acetic acid). After the stained cells had been washed three times with water, the plates were dried at room temperature. The dye was dissolved by adding 100 μl/measurement point of a 10% strength acetic acid solution, and the extinction was determined by photometry at a wavelength of 595 nm. The percentage change in cell growth was calculated by normalizing the measurements to the extinctions of the zero point plate (=0%) and the extinction of the untreated (0 μM) cells (=100%). The IC50 values were determined by means of a 4-parameter fit using the company's own software.

Test [4] deals with T3, CDK1/CycB (Homo sapiens, UniProt P06493).
T3 construct: GST; purchased ProQinase GmbH, Freiburg; host or cells: baculovirus-infected insect cells (Sf9)
T3 sequence (P06493 whole entry): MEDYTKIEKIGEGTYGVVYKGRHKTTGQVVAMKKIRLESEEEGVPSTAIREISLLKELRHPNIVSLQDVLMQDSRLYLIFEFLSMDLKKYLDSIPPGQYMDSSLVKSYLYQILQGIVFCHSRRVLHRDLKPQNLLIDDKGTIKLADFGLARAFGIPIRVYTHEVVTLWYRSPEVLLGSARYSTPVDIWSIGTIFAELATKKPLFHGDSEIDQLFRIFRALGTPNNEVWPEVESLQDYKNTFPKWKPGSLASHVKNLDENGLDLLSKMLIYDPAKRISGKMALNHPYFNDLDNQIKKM
T3 sequence (P14635 whole entry partner): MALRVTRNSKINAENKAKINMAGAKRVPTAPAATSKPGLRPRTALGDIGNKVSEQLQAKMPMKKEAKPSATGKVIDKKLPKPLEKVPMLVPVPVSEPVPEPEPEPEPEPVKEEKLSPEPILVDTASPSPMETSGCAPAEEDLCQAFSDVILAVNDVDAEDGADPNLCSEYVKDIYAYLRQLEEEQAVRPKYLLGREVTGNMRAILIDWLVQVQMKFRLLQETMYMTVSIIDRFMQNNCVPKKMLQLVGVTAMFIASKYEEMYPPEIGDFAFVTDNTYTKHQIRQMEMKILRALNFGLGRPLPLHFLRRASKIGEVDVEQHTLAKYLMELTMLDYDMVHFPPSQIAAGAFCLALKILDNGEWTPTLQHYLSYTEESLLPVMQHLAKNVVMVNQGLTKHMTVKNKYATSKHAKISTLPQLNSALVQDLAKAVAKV
Kind of test: CDK1/CycB kinase assay. Format: biochemical. Particulars: 0.5 μM ATP, histone IIIS, 33P filter assay. How it is done: Recombinant CDK1- and CycB-GST fusion proteins, purified from baculovirus-infected insect cells (Sf9), were purchased from ProQinase GmbH, Freiburg. The histone IIIS used as kinase substrate can be purchased from Sigma.
CDK1/CycB (5 ng/μL) was incubated in the presence of various concentrations of test substances (0 μM, and within the range 0.01-100 μM) in 40 μL of assay buffer [50 mM Tris/HCl pH 8.0, 10 mM MgCl2, 0.1 mM Na ortho-vanadate, 1.0 mM dithiothreitol, 0.025% PEG 20000, 0.5 μM ATP, 10 μM histone IIIIS, 0.2 μCi/measurement point ^33P-gamma ATP, 0.05% NP40, 1.25% dimethyl sulphoxide] at 22° C. for 10 min. The reaction was stopped by adding EDTA solution (250 mM, pH 8.0, 15 μl/measurement point).
15 μl of each reaction mixture were loaded onto P30 filter strips (from Wallac), and non-incorporated ^33P-ATP was removed by washing the filter strips three times in 0.5% strength phosphoric acid for 10 min each time. After the filter strips had been dried at 70° C. for 1 hour, the filter strips were covered with scintillator strips (MeltiLex™ A, from Wallac) and baked at 90° C. for 1 hour. The amount of incorporated ^33P (substrate phosphorylation) was determined by scintillation measurement in a gamma radiation counter (Wallac).
The measured data were normalized to 0% inhibition (enzyme reaction without inhibitor) and 100% inhibition (all assay components except enzyme). The IC50 values were determined by means of a 4-parameter fit using the company's own software.

For test [5], the target named is T4, human Aurora-C (Homo sapiens, UniProt Q9UQB9).
T4 construct: GST; made in house; host or cells: transiently transfected HEK293 cells
T4 sequence (Q9UQB9 1-309): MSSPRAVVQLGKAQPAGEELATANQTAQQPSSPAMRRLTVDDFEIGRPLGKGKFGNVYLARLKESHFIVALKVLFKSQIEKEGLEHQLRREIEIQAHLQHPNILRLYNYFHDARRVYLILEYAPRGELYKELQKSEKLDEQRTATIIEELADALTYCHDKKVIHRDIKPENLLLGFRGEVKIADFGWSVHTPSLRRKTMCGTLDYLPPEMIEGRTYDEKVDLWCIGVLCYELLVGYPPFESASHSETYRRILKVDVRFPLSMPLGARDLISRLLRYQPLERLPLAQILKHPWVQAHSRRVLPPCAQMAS
Kind of test: Aurora-C kinase assay (HTRF). It is filed as biochemical. Particulars: GST-human Aurora-C, 10 μM ATP. How it is done: The Aurora-C inhibitory activity of the substances of this invention was measured in the Aurora-C-HTRF assay (HTRF=Homogeneous Time Resolved Fluorescence) described in the following paragraphs.
Recombinant fusion protein of GST and human Aurora-C was expressed in transiently transfected HEK293 cells and purified by affinity chromatography on glutathione-Sepharose. The substrate used for the kinase reaction was the biotinylated peptide biotin-Ttds-FMRLRRLSTKYRT (C terminus in amide form) which can be purchased for example from JERINI Peptide Technologies (Berlin). Aurora-C was incubated in the presence of various concentrations of test substances in 5 μL of assay buffer [25 mM Hepes/NaOH pH 7.4, 0.5 mM MnCl2, 2.0 mM dithiothreitol, 0.1 mM sodium orthovanadate, 10 μM adenosine triphosphate (ATP), […] substrate, 0.01% (v/v) TritonX-100 (Sigma), 0.05% (w/v) bovine serum albumin (BSA), 1% (v/v) dimethyl sulphoxide] at 22° C. for 60 min. The concentration of Aurora-C was adapted to the particular activity of the enzyme and adjusted so that the assay operated in the linear range. Typical concentrations were in the region of 0.3 nM. The reaction was stopped by adding 5 μl of a solution of HTRF detection reagents (0.2 μM streptavidin-XLent and 1.4 nM anti-phospho-(Ser/Thr)-Akt substrate-Eu-cryptate (C is biointernational, France, product No. 61P02KAE), a Europium-cryptate-labelled phospho-(Ser/Thr)-Akt substrate antibody [product #9611B, Cell Signaling Technology, Danvers, Mass., USA]) in aqueous EDTA solution (40 mM EDTA, 400 mM KF, 0.05% (w/v) bovine serum albumin (BSA) in 25 mM HEPES/NaOH pH 7.0).
as §1, with “anti-phospho-(Ser/Thr)-Akt substrate-Eu cryptate” for “Prot-A-EuK”

In the case of `Cc1cc(C)nc(Sc2ccc(Nc3ncc(Br)c(O[C@H](C)[C@@H](C)O)n3)cc2)n1` [Example 41], the IC50 in test [1] came to 60 nM; in test [2] it was 1400 nM; in test [3] it was 800 nM; in test [4] it was 98 nM.

Turning to `Brc1cnc(Nc2cccc(Nc3ncc(Br)c(NCCc4c[nH]cn4)n3)c2)nc1NCCc1c[nH]cn1` [Example 28], the IC50 was 670 nM in test [1], 120 nM in test [5] and 23 nM in test [2].

A word on the IC50: it is the point on the concentration scale where inhibition reaches its midpoint. Higher therefore signals weaker potency.

For the origin of these results see patent US20080176866A1, “NOVEL HETARYL-PHENYLENEDIAMINE-PYRIMIDINES AS PROTEIN KINASE INHIBITORS” (priority 2006, published 2008).
